Measured values taken from PubChem BioAssay (NCI).
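A five-concentration, 48-hour dose response in 96-well plates underlies each endpoint, interpolated linearly between surrounding concentrations. Here, GI50 denotes the concentration required for 50% inhibition of growth. TGI is the concentration that stops growth completely.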

Key:
Assay in all cases: growth of human tumour cells (NCI), 48 h; in the data active = GI50 below about 0.43 µM; inactive = the rest
RPMI-8226 leukemia = test system: RPMI-8226 leukemia
SK-MEL-2 melanoma = test system: SK-MEL-2 melanoma
SK-MEL-5 melanoma = test system: SK-MEL-5 melanoma
SK-OV-3 ovarian = test system: SK-OV-3 ovarian
CCRF-CEM leukemia = test system: CCRF-CEM leukemia
NCI-H460 lung = test system: NCI-H460 lung
PC-3 prostate = test system: PC-3 prostate
SF-268 CNS = test system: SF-268 CNS
MDA-MB-231 breast = test system: MDA-MB-231 breast
EKVX NSCLC = test system: EKVX NSCLC
MOLT-4 leukemia = test system: MOLT-4 leukemia
OVCAR-4 ovarian = test system: OVCAR-4 ovarian
OVCAR-8 ovarian = test system: OVCAR-8 ovarian
LOX IMVI melanoma = test system: LOX IMVI melanoma
HCT-116 colon = test system: HCT-116 colon
NCI-H23 lung = test system: NCI-H23 lung
UACC-257 melanoma = test system: UACC-257 melanoma
BT-549 breast = test system: BT-549 breast
A498 renal = test system: A498 renal
KM12 colon = test system: KM12 colon
M14 melanoma = test system: M14 melanoma
NCI-H226 lung = test system: NCI-H226 lung
TK-10 renal = test system: TK-10 renal
IGROV1 ovarian = test system: IGROV1 ovarian
ACHN renal = test system: ACHN renal
SNB-75 CNS = test system: SNB-75 CNS
CAKI-1 renal = test system: CAKI-1 renal
MCF7 breast = test system: MCF7 breast
T-47D breast = test system: T-47D breast
UO-31 renal = test system: UO-31 renal
NCI-H522 lung = test system: NCI-H522 lung
SR leukemia = test system: SR leukemia
NCI/ADR-RES ovarian = test system: NCI/ADR-RES ovarian
SF-295 CNS = test system: SF-295 CNS
HL-60(TB) leukemia = test system: HL-60(TB) leukemia
HCT-15 colon = test system: HCT-15 colon
COLO 205 colon = test system: COLO 205 colon
HT29 colon = test system: HT29 colon
SNB-19 CNS = test system: SNB-19 CNS
K-562 leukemia = test system: K-562 leukemia
786-0 renal = test system: 786-0 renal
SK-MEL-28 melanoma = test system: SK-MEL-28 melanoma
OVCAR-5 ovarian = test system: OVCAR-5 ovarian
OVCAR-3 ovarian = test system: OVCAR-3 ovarian
MALME-3M melanoma = test system: MALME-3M melanoma
A549 NSCLC = test system: A549 NSCLC
DU-145 prostate = test system: DU-145 prostate
MDA-MB-435 = test system: MDA-MB-435
UACC-62 melanoma = test system: UACC-62 melanoma
HS 578T breast = test system: HS 578T breast
HOP-62 NSCLC = test system: HOP-62 NSCLC
SN12C renal = test system: SN12C renal
SF-539 CNS = test system: SF-539 CNS
U251 CNS = test system: U251 CNS

CC(=O)/C(C)=N/N/C(N)=N\S(=O)(=O)c1cc(C(=O)Nc2ccccc2)c(Cl)cc1SCc1ccccc1
56.3 µM: TGI (MOLT-4 leukemia)
39.5 µM: TGI (EKVX NSCLC)
385 nM: TGI (HOP-62 NSCLC)
24.2 µM: TGI (HL-60(TB) leukemia)
3.95 µM: TGI (M14 melanoma)
8.05 µM: TGI (SF-539 CNS)
79.3 µM: TGI (NCI-H460 lung)
active: GI50 (HCT-116 colon) 337 nM | GI50 (HOP-62 NSCLC) 55.4 nM
inactive: GI50 (RPMI-8226 leukemia) 7.01 µM | GI50 (SK-MEL-2 melanoma) 43.5 µM | GI50 (SK-MEL-5 melanoma) 24 µM | GI50 (SK-OV-3 ovarian) > 100 µM | GI50 (CCRF-CEM leukemia) 98.5 µM | GI50 (NCI-H460 lung) 18 µM | GI50 (PC-3 prostate) > 100 µM | GI50 (SF-268 CNS) 40.4 µM | GI50 (MDA-MB-231 breast) 5.94 µM | GI50 (EKVX NSCLC) 6.62 µM | GI50 (MOLT-4 leukemia) 3.73 µM | GI50 (OVCAR-4 ovarian) 12.3 µM | GI50 (OVCAR-8 ovarian) 8.6 µM | GI50 (LOX IMVI melanoma) 4.83 µM | GI50 (NCI-H23 lung) 42.8 µM | GI50 (UACC-257 melanoma) 34.8 µM | GI50 (BT-549 breast) 23.8 µM | GI50 (A498 renal) 55.9 µM | GI50 (KM12 colon) 60.2 µM | GI50 (M14 melanoma) 1080 nM | GI50 (NCI-H226 lung) 66.7 µM | GI50 (TK-10 renal) 62.4 µM | GI50 (IGROV1 ovarian) 29.9 µM | GI50 (ACHN renal) 7.89 µM | GI50 (SNB-75 CNS) > 100 µM | GI50 (CAKI-1 renal) > 100 µM | GI50 (MCF7 breast) 76.7 µM | GI50 (T-47D breast) > 100 µM | GI50 (UO-31 renal) 29.6 µM | GI50 (NCI-H522 lung) 64.7 µM | GI50 (SR leukemia) 6.2 µM | GI50 (NCI/ADR-RES ovarian) > 100 µM | GI50 (SF-295 CNS) 43.1 µM | GI50 (HL-60(TB) leukemia) 2360 nM | GI50 (HCT-15 colon) > 100 µM | GI50 (COLO 205 colon) > 100 µM | GI50 (HT29 colon) 61.6 µM | GI50 (SNB-19 CNS) > 100 µM | GI50 (K-562 leukemia) 5.54 µM | GI50 (786-0 renal) 766 nM | GI50 (SK-MEL-28 melanoma) > 100 µM | GI50 (OVCAR-5 ovarian) > 100 µM | GI50 (OVCAR-3 ovarian) > 100 µM | GI50 (MALME-3M melanoma) > 100 µM | GI50 (A549 NSCLC) 30.5 µM | GI50 (DU-145 prostate) 3.5 µM | GI50 (MDA-MB-435) 34.4 µM | GI50 (UACC-62 melanoma) 16.4 µM | GI50 (HS 578T breast) > 100 µM | GI50 (SN12C renal) 28.2 µM | GI50 (SF-539 CNS) 2790 nM | GI50 (U251 CNS) 27.7 µM
> 100 µM: TGI (RPMI-8226 leukemia) | TGI (SK-MEL-2 melanoma) | TGI (SK-MEL-5 melanoma) | TGI (SK-OV-3 ovarian) | TGI (CCRF-CEM leukemia) | TGI (PC-3 prostate) | TGI (SF-268 CNS) | TGI (MDA-MB-231 breast) | TGI (OVCAR-4 ovarian) | TGI (OVCAR-8 ovarian) | TGI (LOX IMVI melanoma) | TGI (HCT-116 colon) | TGI (NCI-H23 lung) | TGI (UACC-257 melanoma) | TGI (BT-549 breast) | TGI (A498 renal) | TGI (KM12 colon) | TGI (NCI-H226 lung) | TGI (TK-10 renal) | TGI (IGROV1 ovarian) | TGI (ACHN renal) | TGI (SNB-75 CNS) | TGI (CAKI-1 renal) | TGI (MCF7 breast) | TGI (T-47D breast) | TGI (UO-31 renal) | TGI (NCI-H522 lung) | TGI (SR leukemia) | TGI (NCI/ADR-RES ovarian) | TGI (SF-295 CNS) | TGI (HCT-15 colon) | TGI (COLO 205 colon) | TGI (HT29 colon) | TGI (SNB-19 CNS) | TGI (K-562 leukemia) | TGI (786-0 renal) | TGI (SK-MEL-28 melanoma) | TGI (OVCAR-5 ovarian) | TGI (OVCAR-3 ovarian) | TGI (MALME-3M melanoma) | TGI (A549 NSCLC) | TGI (DU-145 prostate) | TGI (MDA-MB-435) | TGI (UACC-62 melanoma) | TGI (HS 578T breast) | TGI (SN12C renal) | TGI (U251 CNS)
